Laboratory results as given in patent publication US11419806B2, “Prebiotic oral care methods using a saccharide” (Colgate-Palmolive Company, priority 2013, dated 2022).

Test system: S sanguinis
Assay: Phenotype microarray metabolic activity
Type: cell-based
Conditions: 48 hrs
Description: (§1) The extent of metabolic activity of the tested bacteria in the presence of the above-mentioned saccharides after 24 hours and 48 hours was investigated through a high throughput phenotype microarray system (PM) for microbial cells (Biolog Inc.). Each PM can contain up to 95 different biochemical compounds (e.g. saccharides) that may act as substrates for bacteria as well as one negative control, not containing the substrates. Microarray plates were used in which the different wells of each plate were pre-loaded (by the manufacturer, Biolog Inc.) with different saccharides to be tested. Each bacterial species was tested using a separate microarray plate. Thus, a single bacterial species was tested with a variety of saccharides on each particular plate. The microarrays are based on redox technology, using cell respiration as a universal reporter. Active cell respiration results in the reduction of a tetrazolium dye and in the formation of a strong color—for example, when using the tetrazolium dye “Biolog Redox Dye Mix D”, the color changes from transparent/colorless to purple when the dye is reduced. The observation of this color change indicates which of the substrates improve the metabolic activity and health of the cells.
(§2) Each bacterial species was collected from blood agar plates (incubated for 48 hours anaerobically at 37° C.) and transferred to an IF-0 Base inoculation fluid (Biolog Inc.), which is a nutritionally poor medium. The resulting cell suspension was adjusted to a transmittance of 42% (relative to the transmittance of the base inoculation fluid with no bacterial species present) at 492 nm using a BioRad SmartSpec 3000 Photometer (the adjustment being effected by adding either further inoculation fluid or further bacteria until the transmittance of 42% was achieved). A 1:5 dilution of this suspension was prepared by mixing 3 mL of the 42% transmittance cell suspension with 15 mL of an inoculation fluid (which inoculation fluid was formed by mixing 11.6 mL sterile water, 62.5 mL IF-0 base inoculation fluid and 0.9 mL of the tetrazolium dye “Biolog Redox Dye mix D”), resulting in a final cell density which was equal to 85% transmittance using a BioRad SmartSpec 3000 Photometer. For each of the saccharides tested, the microarray plate (obtained from the supplier (Biolog Inc.) with saccharides already present in the relevant wells in powder form) was directly inoculated with 100 μL/well of this 85% transmittance cell suspension.
(§3) All plates were incubated in an anaerobic atmosphere at 37° C. Color changes were measured spectrophotometrically at 492 nm (Thermo Scientific Multiskan Ascent) at 24 hrs and 48 hrs using the same plate at both time points. […] After 24 hrs and 48 hrs under continuous shaking in a Multiscan microplate reader, the optical density (OD) of the synthetic medium at 24 hours and 48 hours was measured (using the microplate reader) at a wavelength of 492 nm for each combination of bacterium/saccharide, and for each of their respective controls (i.e. which contained the particular bacterium but no saccharide).
(§4) The experiment was carried out three times for each combination of bacterium with saccharide, with each repeat being carried out on a different day (thus providing three biological replicas). The controls were also carried out three times, as above. The values shown are the average (mean) of the three single values obtained (as detailed above) for each combination of bacterium with saccharide, at 24 hrs and at 48 hrs.

**Q.** Which “metabolic activity: OD 492 nm divided by OD of control (control = 1)” value (shortened to “metabolic activity: OD 492 nm divided”) does the source give for `O[C@H]1[C@H](O)[C@@H](O)[C@H](O)[C@@H](O)[C@H]1O` [Myo-Inositol, (1R,2R,3S,4S,5R,6S)-cyclohexane-1,2,3,4,5,6-hexol] here?
**A.** 1.0400

Test system: Streptococcus gordonii
Assay: Phenotype microarray metabolic activity
Type: cell-based
Conditions: S gordonii; 24 hrs
Description: as §1, §2, §3, §4

**Q.** With `O[C@H]1[C@H](O)[C@@H](O)[C@H](O)[C@@H](O)[C@H]1O` [Myo-Inositol, (1R,2R,3S,4S,5R,6S)-cyclohexane-1,2,3,4,5,6-hexol] as the compound, how does the “metabolic activity: OD 492 nm divided” value read?
**A.** 0.8556

Same assay, conditions: S gordonii; 48 hrs

**Q.** `O[C@H]1[C@H](O)[C@@H](O)[C@H](O)[C@@H](O)[C@H]1O` [Myo-Inositol, (1R,2R,3S,4S,5R,6S)-cyclohexane-1,2,3,4,5,6-hexol] was tested. Which “metabolic activity: OD 492 nm divided” value did it give?
**A.** 0.8202

Test system: Streptococcus mitis
Assay: Phenotype microarray metabolic activity
Type: cell-based
Conditions: S mitis; 24 hrs
Description: as §1, §2, §3, §4

**Q.** For `O[C@H]1[C@H](O)[C@@H](O)[C@H](O)[C@@H](O)[C@H]1O` [Myo-Inositol, (1R,2R,3S,4S,5R,6S)-cyclohexane-1,2,3,4,5,6-hexol], which “metabolic activity: OD 492 nm divided” value is on record?
**A.** 1.0571

Same assay, conditions: S mitis; 48 hrs

**Q.** How did the “metabolic activity: OD 492 nm divided” value turn out when `O[C@H]1[C@H](O)[C@@H](O)[C@H](O)[C@@H](O)[C@H]1O` [Myo-Inositol, (1R,2R,3S,4S,5R,6S)-cyclohexane-1,2,3,4,5,6-hexol] was run?
**A.** 0.9877

Test system: Streptococcus mutans
Assay: Phenotype microarray metabolic activity
Type: cell-based
Conditions: S mutans; 24 hrs
Description: as §1, §2, §3, §4

**Q.** Which “metabolic activity: OD 492 nm divided” value does the source give for `O[C@H]1[C@H](O)[C@@H](O)[C@H](O)[C@@H](O)[C@H]1O` [Myo-Inositol, (1R,2R,3S,4S,5R,6S)-cyclohexane-1,2,3,4,5,6-hexol] here?
**A.** 0.8961

Same assay, conditions: S mutans; 48 hrs

**Q.** How did the “metabolic activity: OD 492 nm divided” value turn out when `O[C@H]1[C@H](O)[C@@H](O)[C@H](O)[C@@H](O)[C@H]1O` [Myo-Inositol, (1R,2R,3S,4S,5R,6S)-cyclohexane-1,2,3,4,5,6-hexol] was run?
**A.** 0.8221

Test system: Streptococcus salivarius
Assay: Phenotype microarray metabolic activity
Type: cell-based
Conditions: S salivarius; 24 hrs
Description: as §1, §2, §3, §4

**Q.** `O[C@H]1[C@H](O)[C@@H](O)[C@H](O)[C@@H](O)[C@H]1O` [Myo-Inositol, (1R,2R,3S,4S,5R,6S)-cyclohexane-1,2,3,4,5,6-hexol] was tested. Which “metabolic activity: OD 492 nm divided” value did it give?
**A.** 0.9641

Same assay, conditions: S salivarius; 48 hrs

**Q.** `O[C@H]1[C@H](O)[C@@H](O)[C@H](O)[C@@H](O)[C@H]1O` [Myo-Inositol, (1R,2R,3S,4S,5R,6S)-cyclohexane-1,2,3,4,5,6-hexol] was tested. Which “metabolic activity: OD 492 nm divided” value did it give?
**A.** 0.8260

Test system: Streptococcus sobrinus
Assay: Phenotype microarray metabolic activity
Type: cell-based
Conditions: S sobrinus; 24 hrs
Description: as §1, §2, §3, §4

**Q.** Which “metabolic activity: OD 492 nm divided” value does the source give for `O[C@H]1[C@H](O)[C@@H](O)[C@H](O)[C@@H](O)[C@H]1O` [Myo-Inositol, (1R,2R,3S,4S,5R,6S)-cyclohexane-1,2,3,4,5,6-hexol] here?
**A.** 0.9699

Same assay, conditions: S sobrinus; 48 hrs

**Q.** With `O[C@H]1[C@H](O)[C@@H](O)[C@H](O)[C@@H](O)[C@H]1O` [Myo-Inositol, (1R,2R,3S,4S,5R,6S)-cyclohexane-1,2,3,4,5,6-hexol] as the compound, how does the “metabolic activity: OD 492 nm divided” value read?
**A.** 0.9399

Test system: Tannerella forsythia
Assay: Phenotype microarray metabolic activity
Type: cell-based
Conditions: T forsythia; 24 hrs
Description: as §1, §2, §3, §4

**Q.** For `O[C@H]1[C@H](O)[C@@H](O)[C@H](O)[C@@H](O)[C@H]1O` [Myo-Inositol, (1R,2R,3S,4S,5R,6S)-cyclohexane-1,2,3,4,5,6-hexol], which “metabolic activity: OD 492 nm divided” value is on record?
**A.** 0.9597

Same assay, conditions: T forsythia; 48 hrs

**Q.** How did the “metabolic activity: OD 492 nm divided” value turn out when `O[C@H]1[C@H](O)[C@@H](O)[C@H](O)[C@@H](O)[C@H]1O` [Myo-Inositol, (1R,2R,3S,4S,5R,6S)-cyclohexane-1,2,3,4,5,6-hexol] was run?
**A.** 0.9564

Test system: Veillonella parvula
Assay: Phenotype microarray metabolic activity
Type: cell-based
Conditions: V parvula; 24 hrs
Description: as §1, §2, §3, §4

**Q.** For `O[C@H]1[C@H](O)[C@@H](O)[C@H](O)[C@@H](O)[C@H]1O` [Myo-Inositol, (1R,2R,3S,4S,5R,6S)-cyclohexane-1,2,3,4,5,6-hexol], which “metabolic activity: OD 492 nm divided” value is on record?
**A.** 1.0283

Same assay, conditions: V parvula; 48 hrs

**Q.** Which “metabolic activity: OD 492 nm divided” value does the source give for `O[C@H]1[C@H](O)[C@@H](O)[C@H](O)[C@@H](O)[C@H]1O` [Myo-Inositol, (1R,2R,3S,4S,5R,6S)-cyclohexane-1,2,3,4,5,6-hexol] here?
**A.** 1.0829
